Tests used:
yCBS [1] = target: T1, yCBS (Saccharomyces cerevisiae, UniProt P32582); test: differential scanning calorimetry; assay type: binding; settings: 100 µM AdoMet, 20 mM HEPES pH 7.4, 50 µM PLP, 3 °C/min
T1 construct: gene CYS4
T1 sequence (P32582 1-507): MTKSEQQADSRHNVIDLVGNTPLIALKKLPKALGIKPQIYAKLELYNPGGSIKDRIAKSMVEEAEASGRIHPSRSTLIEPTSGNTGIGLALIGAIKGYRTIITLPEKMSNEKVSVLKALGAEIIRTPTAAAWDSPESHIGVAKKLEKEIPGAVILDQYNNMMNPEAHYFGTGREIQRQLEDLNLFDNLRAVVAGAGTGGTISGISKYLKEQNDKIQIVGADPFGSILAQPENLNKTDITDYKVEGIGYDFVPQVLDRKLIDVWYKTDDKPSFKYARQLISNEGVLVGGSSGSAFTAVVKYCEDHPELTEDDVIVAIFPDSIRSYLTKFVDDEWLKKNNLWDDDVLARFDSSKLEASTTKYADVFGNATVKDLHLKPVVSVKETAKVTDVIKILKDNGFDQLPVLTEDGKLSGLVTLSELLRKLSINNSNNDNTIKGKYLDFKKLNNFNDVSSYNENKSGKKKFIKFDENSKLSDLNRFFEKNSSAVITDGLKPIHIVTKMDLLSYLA

yCBS [2] = target: T1, yCBS; test: isothermal titration calorimetry; assay type: binding
hCBS [3] = target: T2, hCBS (Homo sapiens, UniProt P35520); test: […]serine radioisotope assay of canonical reaction (activation); assay type: biochemical; settings: 10 mM L-serine, 10 mM L-homocysteine, 0.2 mM PLP, pH 8.6, 37 °C; allosteric activator
T2 construct: gene CBS; full-length, permanent C-terminal 6xHis, E. coli, homotetramer of 63 kDa polypeptides, heme-containing
T2 sequence (P35520 1-551): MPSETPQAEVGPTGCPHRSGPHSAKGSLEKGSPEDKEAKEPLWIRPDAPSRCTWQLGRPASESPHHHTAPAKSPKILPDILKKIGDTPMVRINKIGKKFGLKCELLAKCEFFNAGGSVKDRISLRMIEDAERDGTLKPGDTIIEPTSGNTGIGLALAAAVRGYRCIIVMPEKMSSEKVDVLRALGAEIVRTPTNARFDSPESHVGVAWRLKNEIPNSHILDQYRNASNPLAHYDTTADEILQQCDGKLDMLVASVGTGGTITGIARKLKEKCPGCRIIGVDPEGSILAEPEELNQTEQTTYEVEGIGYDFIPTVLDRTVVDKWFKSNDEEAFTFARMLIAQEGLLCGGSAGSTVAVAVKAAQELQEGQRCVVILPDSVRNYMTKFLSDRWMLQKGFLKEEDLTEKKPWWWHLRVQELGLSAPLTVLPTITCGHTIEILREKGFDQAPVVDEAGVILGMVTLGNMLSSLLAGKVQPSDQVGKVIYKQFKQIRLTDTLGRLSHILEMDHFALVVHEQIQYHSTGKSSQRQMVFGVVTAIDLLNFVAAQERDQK

dCBS = target: T3, dCBS (Drosophila melanogaster, UniProt Q9VRD9); test: […]serine radioisotope assay of canonical reaction; assay type: biochemical; settings: 10 mM L-serine, 10 mM L-homocysteine, 0.2 mM PLP, pH 8.6, 37 °C
T3 construct: gene Cbs; full-length, permanent C-terminal 6xHis (pET28-C-dCBS), E. coli Rosetta2 (DE3), homodimer, heme-containing
T3 sequence (Q9VRD9 1-522): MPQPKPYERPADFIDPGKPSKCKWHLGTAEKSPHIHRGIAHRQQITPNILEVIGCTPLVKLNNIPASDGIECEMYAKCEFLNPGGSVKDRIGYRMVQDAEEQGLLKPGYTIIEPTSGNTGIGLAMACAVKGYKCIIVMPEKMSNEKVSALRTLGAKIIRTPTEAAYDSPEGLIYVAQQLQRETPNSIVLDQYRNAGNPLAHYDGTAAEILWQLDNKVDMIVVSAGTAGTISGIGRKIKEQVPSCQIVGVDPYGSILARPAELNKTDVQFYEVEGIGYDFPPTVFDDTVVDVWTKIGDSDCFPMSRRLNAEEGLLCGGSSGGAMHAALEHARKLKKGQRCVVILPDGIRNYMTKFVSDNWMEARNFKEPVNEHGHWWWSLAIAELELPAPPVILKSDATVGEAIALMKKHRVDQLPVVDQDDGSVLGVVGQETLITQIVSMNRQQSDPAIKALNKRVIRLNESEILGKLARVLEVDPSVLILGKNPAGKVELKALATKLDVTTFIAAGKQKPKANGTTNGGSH

hCBS [4] = target: T2, hCBS; test: as above; assay type: biochemical; settings: 10 mM L-serine, 10 mM L-homocysteine, 0.2 mM PLP, pH 8.6, 37 °C; no AdoMet
[5] = target: the molecule itself; test: native gel or EMSA; purified enzymes (100 ng CBS per lane) separated in a 4–15% polyacrylamide gradient gel under native conditions, transferred to PVDF and probed with monoclonal anti-6xHis antibody; oligomeric state of each enzyme
[6] = target: T4, human cystathionine beta-synthase, full-length (human), P35520; test: as above; settings: remark: other sources report otherwise
T4 chain: T2 sequence (P35520 1-551)

C[S+](CC[C@H](N)C(=O)O)C[C@H]1O[C@@H](n2cnc3c(N)ncnc32)[C@H](O)[C@@H]1O (stereo partly shown) [AdoMet]
dTm (yCBS [1]): ~ 0.2 °C | Kd (yCBS [2]): 5 ± 0.5 µM | fold increase in specific activity at 300 μM (hCBS [3]): ~ 3.2 fold

N[C@@H](CO)C(=O)O [Ser]
[14C]serine radioisotope assay of canonical reaction (dCBS): specific activity compared to hCBS in the canonical condensation of Ser and Hcy | [14C]serine radioisotope assay of canonical reaction (hCBS [4]): specific activity compared to hCBS in the canonical condensation of Ser and Hcy

B1: Drosophila melanogaster cystathionine beta-synthase, full-length (enzyme, UniProt Q9VRD9 1-522, looked up)
chain: T3 sequence (Q9VRD9 1-522)
notes: Cloned by NcoI and HindIII into pET-28a; also called dCBS; source: E. coli Rosetta2 (DE3), purified (TALON, DEAE Sepharose); not shown: 6xHis, C-terminal, kept
stoichiometry N [5]: 2

B2: human cystathionine beta-synthase, full-length, P35520 1-551 (enzyme)
chain: T2 sequence (P35520 1-551)
stoichiometry N [6]: 4

B3: Saccharomyces cerevisiae cystathionine beta-synthase, full-length (enzyme, UniProt P32582 1-507, looked up)
chain: T1 sequence (P32582 1-507)
notes: Cloned by NcoI and XhoI into pET-28a; also called yCBS; yCBS WT; source: E. coli Rosetta2 (DE3), purified (TALON, DEAE Sepharose); not shown: 6xHis, C-terminal, kept
stoichiometry N [5]: 4

B4: yCBS L345*, truncated Saccharomyces cerevisiae cystathionine beta-synthase lacking the regulatory domain (domain or fragment, UniProt P32582 1-344, looked up)
chain: MTKSEQQADSRHNVIDLVGNTPLIALKKLPKALGIKPQIYAKLELYNPGGSIKDRIAKSMVEEAEASGRIHPSRSTLIEPTSGNTGIGLALIGAIKGYRTIITLPEKMSNEKVSVLKALGAEIIRTPTAAAWDSPESHIGVAKKLEKEIPGAVILDQYNNMMNPEAHYFGTGREIQRQLEDLNLFDNLRAVVAGAGTGGTISGISKYLKEQNDKIQIVGADPFGSILAQPENLNKTDITDYKVEGIGYDFVPQVLDRKLIDVWYKTDDKPSFKYARQLISNEGVLVGGSSGSAFTAVVKYCEDHPELTEDDVIVAIFPDSIRSYLTKFVDDEWLKKNNLWDDDV
notes: cystathionine beta-synthase, Saccharomyces cerevisiae, C-terminally truncated at L345 (pET28-C-yCBS L345*); Cloned by NcoI and XhoI into pET-28a; source: E. coli Rosetta2 (DE3), purified (TALON, DEAE Sepharose); not shown: 6xHis, C-terminal, kept
stoichiometry N [5]: 2

B5: 45 kDa hCBS (hCBS V414*), truncated human cystathionine beta-synthase lacking the regulatory domain (domain or fragment, UniProt P35520 1-413, looked up)
chain: MPSETPQAEVGPTGCPHRSGPHSAKGSLEKGSPEDKEAKEPLWIRPDAPSRCTWQLGRPASESPHHHTAPAKSPKILPDILKKIGDTPMVRINKIGKKFGLKCELLAKCEFFNAGGSVKDRISLRMIEDAERDGTLKPGDTIIEPTSGNTGIGLALAAAVRGYRCIIVMPEKMSSEKVDVLRALGAEIVRTPTNARFDSPESHVGVAWRLKNEIPNSHILDQYRNASNPLAHYDTTADEILQQCDGKLDMLVASVGTGGTITGIARKLKEKCPGCRIIGVDPEGSILAEPEELNQTEQTTYEVEGIGYDFIPTVLDRTVVDKWFKSNDEEAFTFARMLIAQEGLLCGGSAGSTVAVAVKAAQELQEGQRCVVILPDSVRNYMTKFLSDRWMLQKGFLKEEDLTEKKPWWWHLR
notes: cystathionine beta-synthase, Homo sapiens, C-terminally truncated by a stop at V414 (regulatory domain removed); not shown: 6xHis, C-terminal, kept
stoichiometry N [5]: 2
